Measured values published in patent US7105620B2, “3,4-alkylenedioxy-thiophene copolymers” (Agfa Gevaert, priority 2001, dated 2006).
In brackets after ≈: the same amount, converted by molar mass.

Assay: Solubility of 3,4-alkylenedioxythiophene compounds in water at 25° C.
Assay type: physicochemical
Conditions: thermodynamic from solid, visually adjudged dissolved
Description: The solubility of the 3,4-alkylenedioxythiophene compounds was determined by adding a particular quantity thereof with stirring to sufficient water so that all the monomer was visually adjudged to have dissolved.

Question: For `OCC1COc2cscc2O1` (stereo not drawn) [M1, (2,3-dihydro-thieno[3,4-b][1,4]dioxin-2-yl)-methanol], which solubility is on record?
Answer: ~10000 µg/mL (≈ 58.1 mM)

Question: Which solubility does the source give for `OC1COc2cscc2OC1` [M2, 3,4-dihydro-2H-thieno[3,4-b][1,4]dioxepin-3-ol] here?
Answer: ~8200 µg/mL (≈ 47.6 mM)

Question: With `O=C(O)COCC1COc2cscc2O1` (stereo not drawn) [M3, (2,3-dihydro-thieno[3,4-b][1,4]dioxin-2-yl-methoxy)-acetic acid] as the compound, how does the solubility read?
Answer: ~2700 µg/mL (≈ 11.7 mM)

Question: For `COCCOCCOCCOCC1COc2cscc2O1` (stereo not drawn) [M4, 2-{2-[2-(2-methoxy-ethoxy)-ethoxy]-ethoxymethyl}-2,3-dihydro-thieno[3,4-b][1,4]dioxine], which solubility is on record?
Answer: ~4500 µg/mL (≈ 14.1 mM)

Question: For `O=S(=O)([O-])CCCCOCC1COc2cscc2O1.[Na+]` (stereo not drawn) [M6, 4-(2,3-dihydro-thieno[3,4-b][1,4]dioxin-2-ylmethoxy)-butane-1-sulfonic acid sodium salt], which solubility is on record?
Answer: ~167000 µg/mL

Same assay, conditions: visually adjudged dissolved

Question: For “Polyethylene Oxide Substituted (2,3-dihydro-thieno[3,4-b][1,4]dioxin-2-yl)-methanol [M5]”, which “Solubility in water at 25° C.” value is on record?
Answer: ca. >128 g/L
